≈ marks a conversion by molar mass, not a printed value. Where two headings read alike, the source gives them in different places.
Key:
[1] = system: M. bovis BCG; format: cell-based, Mycobacterium bovis BCG
[2] = system: Vero E6; experiment: Cytotoxicity in Vero E6 cells; format: cell-based, African green monkey; details: 48 h, growth suppressed by 50% vs untreated
Procedure: (§1) To each well in a 96-well plate, 50,000 cells in 100 μL media were seeded. Vero E6 and HepG2 cells were incubated overnight in DMEM for cell adherence at 37°C and 5% CO2. The media was removed from the wells and 100 μL solution made up of fresh DMEM media (99 μL) and the test compound (1 μL from a DMSO stock solution that was […] more concentrated than the final concentration in the well) was then added to each well. DMSO content of each well was consistently kept at 0.5 %v/v. Treated plates were incubated for 48 h (5% CO2, 37°C), after which 10 μL of Celltitre 96 Aqueous One Solution was added to each well, without removal of media, and incubated for a further 3 h. Subsequently, absorbance readings were taken at 490 nm on a Tecan GENios Microplate Reader.
(§2) Cell viability was determined from the expression: Cellviability(%)={[Absorbance(cells+cpd)−Absorbance(cpd)]/[Absorbance(cells+vc)−Absorbance(vc)]}×100% where Absorbance (cells + cpd) = absorbance of wells containing cells and test compound in vehicle (media +0.5% DMSO); Absorbance (cpd) = absorbance of wells containing test compound in vehicle without cells (compound control); Absorbance (cells + vc) = absorbance of wells containing cells in vehicle (vc) only (untreated cells); Absorbance (vc) = absorbance of wells containing vehicle without cells (vehicle control). The percentage viability readings were plotted against log(concentration) on GraphPad Prism (Version 7.0, San Diego, CA) to give a sigmoidal curve, from which IC50, defined as the concentration of the compound that reduced cell viability by 50%, was obtained. At least 3 separate determinations were carried out.

[3] = system: Mab massiliense CCUG 48898-T; experiment: MIC against Mab massiliense CCUG 48898-T; format: cell-based, Mycobacterium abscessus subsp. massiliense; details: for MIC50 Mab massiliense CCUG 48898-T: 3 days
[4] = system: Mab bolletii CCUG 50184-T; experiment: MIC against Mab bolletii CCUG 50184-T; format: cell-based, Mycobacterium abscessus subsp. bolletii; details: for MIC50 Mab bolletii CCUG 50184-T: 3 days
[5] = system: HepG2; experiment: Cytotoxicity in HepG2 cells; format: cell-based, human; details: 48 h, growth suppressed by 50% vs untreated
Procedure: as §1, §2

[6] = system: clinical isolates of Mab; experiment: MIC50 against Mab clinical isolates; format: cell-based, Mycobacterium abscessus; details: range over isolates
[7] = system: Mab abscessus ATCC 19977; experiment: MIC against Mab abscessus ATCC 19977; format: cell-based, Mycobacterium abscessus subsp. abscessus; details: for MIC90: read-out: MIC90 Mab abscessus ATCC 19977; for MIC50 Mab abscessus ATCC 19977: 3 days
[8] = system: M. bovis BCG; experiment: microbe, parasite or virus in culture; format: cell-based, Mycobacterium bovis BCG
[9] = system: Mtb H37Rv; experiment: MIC by broth microdilution against Mtb H37Rv; format: cell-based, Mycobacterium tuberculosis; details: incubation 5 days; for MIC50 Mtb H37Rv: first value of cell MIC50/MIC90; for MIC90: second value of cell MIC50/MIC90, read-out: MIC90 Mtb H37Rv
[10] = system: M. smegmatis mc2155; experiment: MIC against M. smegmatis mc2155; format: cell-based, Mycobacterium smegmatis; details: Mycolicibacterium smegmatis
[11] = system: M. bovis BCG; format: cell-based, Mycobacterium bovis BCG; remark: listed apart in the source
[12] = 7H9 medium (first value of cell)
[13] = CA-MHB medium (second value of cell)

| SMILES | IC50 [2] | MIC90 ([3]; 7H9 broth (first value)) | MIC50 Mab massiliense CCUG 48898-T [3, 12] | MIC50 Mab massiliense CCUG 48898-T [3, 13] | MIC90 ([3]; camH broth (second value)) | MIC90 ([4]; 7H9 broth (first value)) | MIC50 Mab bolletii CCUG 50184-T [4, 12] | MIC50 Mab bolletii CCUG 50184-T [4, 13] | MIC90 ([4]; camH broth (second value)) | IC50 [5] | MIC90 ([7]; 7H9 broth (first value)) | MIC50 Mab abscessus ATCC 19977 [7, 12] | MIC50 Mab abscessus ATCC 19977 [7, 13] | MIC90 ([7]; camH broth (second value)) | MIC50 [8] | MIC50 BCG With Glycerol [8] | MIC50 BCG Without Glycerol [8] | MIC90 (Table S1) [8] | MIC50 Mtb H37Rv [9] | MIC90 [8] | other results |
| --- | --- | --- | --- | --- | --- | --- | --- | --- | --- | --- | --- | --- | --- | --- | --- | --- | --- | --- | --- | --- | --- |
| COc1ccc(CCN(C)CCCC(C#N)(C/C=C(\C)CCC=C(C)C)c2ccc(OC)c(OC)c2)cc1OC (racemic) [PhA3] | 27 µM | 96 µM (≈ 52.7 µg/mL) | 42 µM (≈ 23 µg/mL) | 10 µM (≈ 5.49 µg/mL) | 56 µM (≈ 30.7 µg/mL) | 98 µM (≈ 53.8 µg/mL) | 47 µM (≈ 25.8 µg/mL) | 13 µM (≈ 7.13 µg/mL) | 26 µM (≈ 14.3 µg/mL) | 32 µM | 104 µM (≈ 57.1 µg/mL) | 47 µM (≈ 25.8 µg/mL) | 17 µM (≈ 9.33 µg/mL) | 31 µM (≈ 17 µg/mL) | 11 µM (≈ 6.04 µg/mL) | 11 µM (≈ 6.04 µg/mL) | 18 µM (≈ 9.88 µg/mL) | 22 µM (≈ 12.1 µg/mL) | 19 µM (≈ 10.4 µg/mL) |  | CFUs above the detection limit [1]: 10–100 times; MIC50 seven Mab clinical isolates [6]: 12 to 21 µg/mL; MIC90 [9]: 42 µM (≈ 23 µg/mL) |
| COc1ccc(CCN(C)CCCC(C#N)(CCCCCCCN=[N+]=[N-])c2ccc(OC)c(OC)c2)cc1OC (centres unmarked) [AZ-2] |  |  |  |  |  |  |  |  |  |  |  |  |  |  |  |  |  |  |  |  | MIC90 ([8]; Mycobacterium tuberculosis variant bovis BCG, BCG, M. bovis BCG, broth dilution, growth reduced by 90% vs untreated): 27 µM (≈ 14.9 µg/mL); MIC50 ([8]; Mycobacterium tuberculosis variant bovis BCG, BCG, read-out: M. bovis BCG MIC50 (Table S4)): 12 µM (≈ 6.62 µg/mL); MIC90 ([8]; Mycobacterium tuberculosis variant bovis BCG, BCG, read-out: M. bovis BCG MIC90 (Table S4)): 27 µM (≈ 14.9 µg/mL); MIC50 ([10]; MC2155, 24 h, incubation 1 day, read-out: M. smegmatis mc2155 MIC50 (Table S4)): 38 µM (≈ 21 µg/mL); MIC90 ([10]; MC2155, 24 h, incubation 1 day, read-out: M. smegmatis mc2155 MIC90 (Table S4)): 58 µM (≈ 32 µg/mL); MIC90 ([10]; MC2155, read-out: MIC90 M. smegmatis): 58 µM (≈ 32 µg/mL) |
| COc1ccc(CCN(C)CCCC(C#N)(CCC2CCCCC2)c2ccc(OC)c(OC)c2)cc1OC (centres unmarked) [PhA1] | 51 µM | 106 µM (≈ 55.4 µg/mL) | 100 µM (≈ 52.3 µg/mL) | 15 µM (≈ 7.84 µg/mL) | 125 µM (≈ 65.3 µg/mL) | 109 µM (≈ 57 µg/mL) | 97 µM (≈ 50.7 µg/mL) | 22 µM (≈ 11.5 µg/mL) | 61 µM (≈ 31.9 µg/mL) | 34 µM | 115 µM (≈ 60.1 µg/mL) | 76 µM (≈ 39.7 µg/mL) | 25 µM (≈ 13.1 µg/mL) | 54 µM (≈ 28.2 µg/mL) | 12 µM (≈ 6.27 µg/mL) | 12 µM (≈ 6.27 µg/mL) | 21 µM (≈ 11 µg/mL) | 25 µM (≈ 13.1 µg/mL) | 19 µM (≈ 9.93 µg/mL) |  | CFUs above the detection limit [1]: 10–100 times; MBC99.9 (10^3-fold kill) [11]: 4 x MIC90; MIC90 [9]: 43 µM (≈ 22.5 µg/mL) |
| COc1ccc(CCN(C)CCCCCCCCCCC(C#N)(c2ccc(OC)c(OC)c2)C(C)C)cc1OC (centres unmarked) [PhA9] | 15 µM | > 200 µM | 123/– ^e uM |  |  | 200 µM (≈ 111 µg/mL) | 103/– ^e uM |  |  | 15 µM | 190 µM (≈ 105 µg/mL) | 74/– ^e uM |  |  | 11 µM (≈ 6.08 µg/mL) | 11 µM (≈ 6.08 µg/mL) | 22 µM (≈ 12.2 µg/mL) | 22 µM (≈ 12.2 µg/mL) |  | 22 µM (≈ 12.2 µg/mL) | MBC99.9 (10^3-fold kill) [11]: 2 x MIC90; MIC90 BCG [8]: 12 µg/mL (≈ 21.7 µM) |
| COc1ccc(CCN(C)CCCC(C#N)(CCC2CCCCC2)c2ccc(Cl)c(Cl)c2)cc1OC (centres unmarked) [PhA11] | 57 µM | > 250 µM | > 250 µM | 21 µM (≈ 11.2 µg/mL) | > 250 µM | > 250 µM | > 250 µM | 160 µM (≈ 85.1 µg/mL) | > 250 µM | 44 µM | > 250 µM | > 250 µM | 175 µM (≈ 93 µg/mL) | > 250 µM | 14 µM (≈ 7.44 µg/mL) |  | 46 µM (≈ 24.5 µg/mL) | 25 µM (≈ 13.3 µg/mL) | 19/40 μM | 25 µM (≈ 13.3 µg/mL) | MIC90 BCG [8]: 13 µg/mL (≈ 24.5 µM); MIC90 Mtb H37Rv [9]: 19/40 μM |
| CCCCCCCCC(C#N)(CCCN(C)CCc1ccc(OC)c(OC)c1)c1ccc(Cl)c(Cl)c1 (centres unmarked) [PhA12] | 69 µM | > 250 µM | > 250 µM | 31 µM (≈ 16.5 µg/mL) | > 250 µM | > 250 µM | > 250 µM | 72 µM (≈ 38.4 µg/mL) | > 250 µM | 51 µM | > 250 µM | > 250 µM | 194 µM (≈ 104 µg/mL) | > 250 µM | 16 µM (≈ 8.54 µg/mL) |  | 35 µM (≈ 18.7 µg/mL) | 29 µM (≈ 15.5 µg/mL) | 23/46 μM | 29 µM (≈ 15.5 µg/mL) | MBC99.9 (10^3-fold kill) [11]: 4 x MIC90; MIC90 BCG [8]: 16 µg/mL (≈ 30 µM); MIC90 Mtb H37Rv [9]: 23/46 μM |
| COc1ccc(CCN(C)CCCC(C#N)(CC=C(C)CCC=C(C)C)c2ccc(Cl)c(Cl)c2)cc1OC (centres unmarked) [PhA13] | 60 µM | > 250 µM | > 250 µM | 23 µM (≈ 12.8 µg/mL) | > 250 µM | > 250 µM |  |  | > 250 µM | 42 µM | > 250 µM | >250/250 uM | >250/250 uM | > 250 µM | 12 µM (≈ 6.69 µg/mL) | 12 µM (≈ 6.69 µg/mL) | 30 µM (≈ 16.7 µg/mL) | 23 µM (≈ 12.8 µg/mL) | 21 µM (≈ 11.7 µg/mL) | 23 µM (≈ 12.8 µg/mL) | MIC90 BCG [8]: 13 µg/mL (≈ 23.3 µM); MIC90 [9]: 45 µM (≈ 25.1 µg/mL) |

Reference: PMC12281142, “A potent phenylalkylamine disrupts mycobacterial membrane bioenergetics and augments bactericidal activity of bedaquiline” (iScience, 2025)
